The target of the assay is T1, StlA (PAL, phenylalanine ammonia lyase) (Photorhabdus laumondii, UniProt Q7N4T3).
T1 construct: gene plu2234; full-length, untagged; aTc-inducible low-copy plasmid in E. coli Nissle 1917; soluble cell lysate
T1 sequence (Q7N4T3 1-532): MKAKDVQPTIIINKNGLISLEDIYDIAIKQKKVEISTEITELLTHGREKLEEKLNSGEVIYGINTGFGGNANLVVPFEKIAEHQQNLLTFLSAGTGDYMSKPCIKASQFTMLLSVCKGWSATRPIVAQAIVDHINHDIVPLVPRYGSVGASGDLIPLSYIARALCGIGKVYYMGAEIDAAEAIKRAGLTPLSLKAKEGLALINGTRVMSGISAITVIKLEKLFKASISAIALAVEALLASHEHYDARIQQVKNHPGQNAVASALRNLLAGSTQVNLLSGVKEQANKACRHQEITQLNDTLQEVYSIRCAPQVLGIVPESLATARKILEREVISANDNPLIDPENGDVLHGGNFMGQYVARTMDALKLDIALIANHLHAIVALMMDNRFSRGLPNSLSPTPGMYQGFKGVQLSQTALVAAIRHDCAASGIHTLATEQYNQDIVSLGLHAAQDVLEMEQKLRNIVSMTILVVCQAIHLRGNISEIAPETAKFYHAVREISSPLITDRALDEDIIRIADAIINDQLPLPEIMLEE
Nature of the assay: TCA formation followed at A290, nonlinear Michaelis-Menten fit. In kind it is biochemical. As to conditions: soluble lysate of E. coli Nissle (EP2315), 10 µg total protein per well; M9 0.5% glucose, 37 °C. From the text: TCA formation followed at A290, nonlinear Michaelis-Menten fit on StlA (PAL, phenylalanine ammonia lyase)

With `N[C@@H](Cc1ccccc1)C(=O)O` [Phe], the “KM (mM Phe)” value stood at 1.69 ± 0.37 mM.

Source of the values: article PMC8553829, “Improvement of a synthetic live bacterial therapeutic for phenylketonuria with biosensor-enabled enzyme engineering” (Nature Communications, 2021).
